Results published in patent US20080248097A1, “POLYMERIC MICELLES FOR COMBINATION DRUG DELIVERY” (priority 2007, published 2008).
Read-outs that look alike come from different tables or passages of the source.

Legend:
[1] = tested on: human small cell lung cancer SBC-3 cells; test: Confocal laser scanning microscopy of intracellular localization; type: cell-based; conditions: 10 μg mL−1
Method: FIG. 4 illustrates CLSM images of human small cell lung cancer SBC-3 cells incubated with ADR and PEG-p(Asp-Hyd-ADR) micelles (10 μg mL^−1). […] A series of optical sections was stacked (Z-stacked) by moving the focal plane of the instrument step-by-step through the depth of the cell.

[2] = DMEM with 10% fetal bovine serum, 24 hours, 100 μg mL−1 ADR equivalent, excitation 485 nm
[3] = tested on: tumor; conditions: mouse, in vivo
Method: (§1) Cancer treatment efficacy of the pH-sensitive micelles was evaluated by comparing the therapeutic windows of small molecule drugs (doxorubicin) and the doxorubicin-conjugated micelles.
(§2) The CDF1 mice (female, n=6), when the tumor volume reached about 100 mm^3, were injected with DOX or the micelles in a volume of 0.1 mL/10 g body weight for the experiments. The dose was either 10 mg/kg for DOX or the micelles (DOX equivalent).
(§3) Cancer treatment efficacy of the pH-sensitive micelles was evaluated by comparing the therapeutic windows of small molecule drugs (doxorubicin) and the doxorubicin-conjugated micelles. Therapeutic windows were determined based on the ratio of ED50 to TD.

[4] = Biodistribution and plasma levels in tumor-bearing mice; conditions: after 10 hours; 10 mg/kg, CDF1 mice
Method: as §2

[5] = tested on: tumor; test: Cancer treatment efficacy and toxicity in tumor-bearing mice (Table 2, therapeutic window); conditions: for Complete Cure / Toxic Death: mice; for Complete Cure: cured/animals; for Toxic Death: deaths/animals
Method: as §1, §2, §3

[6] = tested on: human small cell lung cancer SBC-3 cells; conditions: different ADR concentrations and exposure times
Excerpt: As a system releasing bioactive molecules, the micelles are required to maintain the ability of the loaded ADR to suppresses cell growth by binding with DNA strands in the cell nucleus.

COc1cccc2c1C(=O)c1c(O)c3c(c(O)c1C2=O)C[C@@](O)(C(=O)CO)C[C@@H]3O[C@H]1C[C@H](N)[C@H](O)[C@H](C)O1 [DOX, doxorubicin]
fluorescence intensity in cells ([1]; after 1 hour exposure): increase in fluorescence intensity
intracellular localization of fluorescence ([1]; after 24 hours incubation): only accumulated in cell nuclei
fluorescence intensity at 590 nm [2]: intense fluorescence
Weight change on day 30 (%) ([3]; 5 mg/kg): −13.35 ± 0.59%
Weight change on day 30 (%) ([3]; 10 mg/kg): −16.84 ± 1.26%
dose remained in the blood [4]: almost none
Complete Cure ([5]; dose 5 mg/kg): 0/6
Toxic Death ([5]; dose 5 mg/kg): 0/6
Complete Cure ([5]; dose 10 mg/kg): 1/6
Toxic Death ([5]; dose 10 mg/kg): 0/6

poly(ethylene glycol)poly(aspartate-hydrazone-adriamycin) [DOX-Micelle]
fluorescence intensity in cells ([1]; after 1 hour exposure): no such increase was detected
fluorescence intensity in cells ([1]; after 24 hours incubation): considerable fluorescence change
intracellular localization of fluorescence ([1]; after 24 hours incubation): dot-shaped within the cytoplasm
growth-inhibition effect [6]: gradually approach those of free ADR
therapeutic window compared to standard doxorubicin administration ([5]; based on treatment-to-control (T/C) ratio, ratio of ED50 to TD): broader therapeutic window
Complete Cure ([5]; dose 5 mg/kg): 0/6
Complete Cure ([5]; dose 10 mg/kg): 0/6
Complete Cure ([5]; dose 20 mg/kg): 2/6
Complete Cure ([5]; dose 40 mg/kg): 3/6
